Test results reported in patent publication US5376671A, “Propenoyl-imidazole derivatives” (Bayer Aktiengesellschaft, priority 1992, dated 1994).
pKi: −log10 of the molar value. ≈ marks a conversion by molar mass, not a printed value.

How the values were obtained:
[1] = test system: smooth muscle cells from rats' aortas; experiment: Inhibition of proliferation of smooth muscle cells (3H-thymidine incorporation); type: cell-based; settings: 10^-6 M, rat aortic smooth muscle cells, 10% FCS
Experimental: Investigation of the inhibition of proliferation of smooth muscle cells by the compounds according to the invention
To determine the antiproliferative action of the compounds, smooth muscle cells are used that have been obtained from rats' aortas by the media explant technique [R. Ross, J. Cell. Biol. 50. 172, 1971]. The cells are innoculated into suitable culture dishes (as a rule 96-hole plates, and cultured at 37° C. for 2-3 days in medium containing added serum, 2 mM L-glutamine and 15 mM HEPES, pH 7.4, in 5% CO2. The cells are then synchronised by withdrawal of serum for 2-3 days and then stimulated into growth by serum or other factors. Test desired compounds are added simultaneously. After 16-20 hours, 1 μCi of ^3 H-thymidine is added, and after a further 4 hours, the incorporation of this substance into the TCA-precipitable DNA of the cells is determined.

[2] = test system: isolated rabbit aorta (contraction induced by angiotensin II); experiment: Inhibition of vascular contraction in isolated rabbit aorta rings in vitro, contractions induced by angiotensin II; settings: based on the 3rd (submaximal) agonist concentration
Experimental: Rabbits of both sexes are stunned by a blow to the neck and bled out, or in some cases anesthetised with Nembutal (about 60-80 mg/kg i.v.) and sacrificed by opening the thorax. The thorax aorta is taken out, freed from adhering connective tissue, divided into 1.5 mm wide ring segments and individually transferred under an initial loading of about 3.5 g to 10 ml organ baths containing 95% 02 /5% CO2 -aerated Krebs-Henseleit nutrient solution temperature-controlled at 37° C. of the following composition: 119 mmol/l of NaCl: 2.5 mmol/l of CaCl2 ×2 H2 O; 1.2 mmol/l of KH2 PO4; 10 mmol/l of glucose; 4.8 mmol/l of KCl; 1.4 mmol/l of MgSO4 ×7 H2 O and 25 mmol/l of NaHCO3.
The contractions are measured isometrically by Statham UC2 cells by means of bridge amplifiers (ifd Mulheim or DSM Aalen) and digitalised and analysed by means of A/D converters (System 570, Keithley Munich). Agohist dose response curves (DRC) were plotted hourly. With each DRC, 3 or 4 individual concentrations are applied to the baths at an interval of 4 min. After completion of the DRC and subsequent washing-out cycles (16 times, in each case about 5 sec/min with the abovementioned nutrient solution), a 28-minute resting or incubation phase is added in the course of which the contractions usually reach the starting value again.
The height of the 3rd DRC in the normal case is used as a reference quantity for the evaluation of the test substance to be investigated in further passages, which is applied to the baths in the following DRCs in increasing dosage in each case at the start of the incubation time. In this way, each aorta ring is always stimulated for the whole day with the same agohist.
To calculate the IC50 (concentration at which the substance to be investigated causes a 50% inhibition), the effect is in each case based on the 3rd=submaximal agonist concentration.

[3] = biological target: T1, angiotensin II receptor on membrane fractions of adrenal gland cortex (bovine) (Bos taurus, UniProt P25104); experiment: Interaction with the angiotensin II receptor on membrane fractions of adrenal gland cortex (bovine), 3H-angiotensin II binding; settings: 3H-angiotensin II 3-5 nM, 60 min, room temperature
T1 construct: partially purified membrane fractions of bovine AGC using radioactive angiotensin II; from tissue; host or cells: bovine adrenal gland cortex, partially purified membrane fractions
T1 sequence (P25104 1-359): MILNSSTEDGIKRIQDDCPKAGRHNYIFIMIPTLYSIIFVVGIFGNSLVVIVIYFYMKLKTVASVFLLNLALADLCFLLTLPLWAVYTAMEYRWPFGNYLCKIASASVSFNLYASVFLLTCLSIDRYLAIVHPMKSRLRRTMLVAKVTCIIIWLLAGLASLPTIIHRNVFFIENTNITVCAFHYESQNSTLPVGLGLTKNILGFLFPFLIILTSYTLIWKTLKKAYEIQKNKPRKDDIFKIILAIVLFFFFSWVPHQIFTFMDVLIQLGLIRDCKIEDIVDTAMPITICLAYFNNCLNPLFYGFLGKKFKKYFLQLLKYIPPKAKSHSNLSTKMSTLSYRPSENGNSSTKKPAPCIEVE
Description: Interaction of the compounds according to the invention with the angiotensin II receptor on membrane fractions of adrenal gland cortex (bovine)
Bovine adrenal gland cortices (AGC) which have been freshly removed and carefully freed from gland medulla are comminuted in sucrose solution (0.32M) with the aid of an Ultra-turrax (Janke & Kunkel, Staufen I. B.) to give a coarse membrane homogenate and are partially purified to give membrane fractions in two centrifugation steps. The receptor binding investigations are carried out on partially purified membrane fractions of bovine AGC using radioactive angiotensin II in an assay volume of 0.25 ml which, in detail, contains the partially purified membranes (50-80 μg) ^3 H-angiotensin II (3-5 nM), test buffer solution (50 mM tris, pH 7.2), 5 mM MgCl2 and the substances to be investigated. After an incubation time of 60 min at room temperature, the unbound radioactivity of the samples is separated by means of moistened glass fibre filters (Whatman GF/C) and the bound radioactivity is measured […] in a scintillation cocktail after washing the protein with ice-cold buffer solution (50 mM tris/HCl, pH 7.4, 5% PEG 6000). […]

[4] = biological target: T2, type 2 angiotensin II receptor (AT2) (Bos taurus, UniProt G5E6F7); experiment: Interaction with the type 2 angiotensin II receptor (AT2) on membrane fractions of bovine cerebellum, 125I-angiotensin II binding; settings: bovine cerebellum membranes; 125I-angiotensin II about 0.1 nM; 60 min, 37° C.
T2 construct: membrane fractions of bovine cerebellum; purchased NEN DuPont NED-001; host or cells: bovine cerebellum membrane fractions
T2 sequence (G5E6F7 1-362): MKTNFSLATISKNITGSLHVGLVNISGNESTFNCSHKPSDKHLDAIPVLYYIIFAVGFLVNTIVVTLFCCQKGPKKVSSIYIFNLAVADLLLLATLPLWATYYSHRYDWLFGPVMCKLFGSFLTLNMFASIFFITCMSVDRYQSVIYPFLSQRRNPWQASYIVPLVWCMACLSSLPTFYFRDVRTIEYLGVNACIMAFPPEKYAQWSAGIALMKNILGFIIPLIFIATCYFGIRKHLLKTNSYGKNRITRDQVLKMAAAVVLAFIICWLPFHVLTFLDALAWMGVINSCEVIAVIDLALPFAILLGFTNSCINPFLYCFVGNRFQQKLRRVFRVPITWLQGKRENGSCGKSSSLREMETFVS
Experimental: Interaction of the compounds according to the invention with the type 2 angiotensin II receptor (AT2) on membrane fractions of bovine cerebellum
For the test, the AT2 receptor "Drug Discovery System" of NEN DuPont (Catalogue No. NED-001) is used. The test is carried out correspondingly using the test protocol additionally supplied. Receptor binding is carried out in a test volume of 235 μl, which in detail contains ^125 I-angiotensin II (about 0.1 nM), Test buffer (PBS, NaCl, EDTA, PMSF, DTT, DMSO) and the substances to be investigated. After an incubation of 60 min at 37° C., the unbound radioactivity of the samples is separated by means of moistened glass fibre filters (Whatman GF/C) and the bound radioactivity is measured […] in a scintillation cocktail after washing the protein with ice-cold buffer solution (0.9% strength NaCl). The analysis of the raw data was carried out using computer programs for the IC50 or Ki value determination (IC50 value: concentration at which the substance to be investigated causes a 50% inhibition of the specific binding of the radioligand: Ki value: IC50 value corrected for the radioactivity used).

| SMILES | IC50 against contractions induced by angiotensin II [2] [µg/mL] | pKi [3] | further results |
| --- | --- | --- | --- |
| CCCCc1nc(Cl)c(/C=C(\CC2CCCCC2)C(=O)OC)n1Cc1ccc(C(C(=O)N[C@H](CO)c2ccccc2)C2CCCC2)cc1 (stereo partly drawn) [Example 5, (E)-2-[4-{2-n-Butyl-4-chloro-5-(3-cyclohexyl-2-methoxyarbonyl-prop-1-en-yl)-1H-imidazol-1-methyl}phenyl]-2-cyclopentyl-acetic acid L-phenylglycinolamide] | – | – | inhibition at 1 µM [1]: 90% |
| CCCCc1nc(Cl)c(/C=C(\CC2CCCCC2)C(=O)OC)n1Cc1ccc(C(C(=O)NS(=O)(=O)c2ccc(C)cc2)C2CCCC2)cc1 (stereo not shown) [Example 6, (E)-N-4-Toluenesulphonyl-2-[4-{2-n-butyl-4-chloro-5-(3-cyclohexyl-2-methoxycarbonyl-prop-1-en-yl)-1H-imidazol-1-yl-methyl}phenyl]-2-cyclopentyl-acetamide] | – | 6.12 | – |
| CCCCc1nc(Cl)c(/C=C(\CC2CCCCC2)C(=O)O)n1Cc1ccc(C(C(=O)O)C2CCCC2)cc1 (racemic) [Example 4] | 0.063 (≈ 0.116 µM) | – | pKi [4]: 6.08 |

Continued, in another order:

| IC50 against contractions induced by angiotensin II [2] [µg/mL] | pKi [3] | SMILES | further results |
| --- | --- | --- | --- |
| 0.046 (≈ 0.0808 µM) | – | CCCCc1nc(Cl)c(/C=C(\CC2CCCCC2)C(=O)O)n1Cc1ccc(C(C(=O)O)C2CCCCCC2)cc1 (stereo not shown) [Example 12] | – |
| 0.051 (≈ 0.0735 µM) | – | CCCCc1nc(Cl)c(/C=C(\CC2CCCCC2)C(=O)O)n1Cc1ccc(C(C(=O)NS(=O)(=O)c2ccc(C)cc2)C2CCCC2)cc1 (stereo not shown) [Example 7] | – |
| – | 7.10 | CCCCc1nc(Cl)c(/C=C(\CC2CCCCC2)C(=O)O)n1Cc1ccc(C(C(=O)N[C@H](CO)c2ccccc2)C2CCCC2)cc1 (stereo partly shown) [Example 8] | – |
